Experiments:
Type in all cases: in vivo
Sprague Dawley rats [1] = assay: Predator odor stress exposure and conditioned place aversion (PTSD model); settings: DOX 1 mg/kg IP
Method: Doxazosin (DOX, Sigma-Aldrich, St. Louis, MO, USA, 1 mg/kg, IP) was prepared in sterile saline. Previously it has been shown that DOX is effective in the treatment of some PTSD symptoms in veterans (Rodgman et al. (2016). Doxazosin XL reduces symptoms of posttraumatic stress disorder in veterans with PTSD: a pilot clinical trial. J. Clin. Psychiat., 77(5), e561-565). The two doses of FQSE (SEQ ID NO:10) (0.05 and 0.5 mg/kg, CS, Menlo Park, CA) were prepared fresh for each test day in sterile saline and administered intra-nasally 30 minutes prior to testing. Each dose was administered in a randomized order across groups. […] The same procedure with isoflurane was used to administer doxazosin however the drug was administered IP. Individuals performing behavioral tests were blind to drug treatment. […] Potential differences between groups that were not odor exposed and odor exposed groups were analyzed using One-Way ANOVA with drug dose as the primary factor. […]

Sprague Dawley rats [2] = assay: Forced swim test in rats, intranasal FQSE; settings: FQSE 0.5 mg/kg i.n.; ketamine 10 mg/kg IP
Method: The five doses of FQSE (SEQ ID NO:10) (0.01, 0.1, 0.5, 1 and 3 mg/kg, CS, Menlo Park, CA) were prepared fresh for each test day in sterile saline and administered intranasally (i.n.) 30 minutes prior to testing. Fifteen rats per group per peptide dose were tested with the exception that there were twenty rats in the vehicle (0) group. Each dose was administered in a randomized order across rats. Prior to dosing, the rats were lightly anesthetized (till loss of righting reflex) with isoflurane (2.5%, 0.5 L/min oxygen), placed in the recumbent position, then a thin plastic pipette (Fischer Scientific) inserted into the nares and peptide administered at a volume of 15-20 uL per nares. Individuals performing the behavioral tests were blind to drug treatment.
Rats were first allowed to acclimate to the testing room for 30 minutes while in their home cage. The forced swim tests were conducted using Plexiglas cylinders (10 in width, 18 in height) filled with water maintained at approximately 25° C. On day 1, rats were first habituated (15 minutes) to the forced swim apparatus by being placed into the water facing the cylinder wall. Forced swim tests (5 minutes) occurred the following day. Activity was recorded by digital cameras and analyzed with specialized software (Ethovision XT12).
Statistical significance was set at P<0.05.

zebrafish (Danio rerio) [3] = assay: Shoaling behavior test in zebrafish; settings: ip, DKTE 1 mg/kg
Method: (§1) The tested substances were injected into the zebrafish intraperitoneally (ip) using an insulin syringe (0.5 ml, 30 g) 10 minutes before the test. The saline solution (0.9% NaCl) was used as a solvent. Anesthesia and immobilization of the animals were achieved by placing them in water at a temperature of 10° C. Control group fish received intraperitoneal injections of an equivalent volume of solvent, also after going through a pre-cooling procedure.
A Plexiglas container with a removable partition (shown in FIG. 4) was used as a setup for investigating the shoaling behavior of zebrafish. A shoal of 5 adult Danio rerio specimens was placed into in the small compartment; and the test fish was placed in a large compartment. Diffused lighting in this installation was provided by the usual lighting of the room (about 200 Lx).
(§2) The shoaling behavior test was performed as described in Parker et al., 2014. (Parker et al. (2014) The utility of zebrafish to study the mechanisms by which ethanol affects social behavior and anxiety during early brain development. Prog. Neuro-Psychopharmacology Biol. Psychiatry. 94-100). The video recording began simultaneously with placing the zebrafish in the set-up and recorded for 5 minutes. The videos were processed using RealTimer (OpenScience Ltd., Moskow, Russia). During the processing of the records, the residence time and the number of visits to the three conventional zones of the aquarium wall (near the “shoal” in the middle of the aquarium, and near the opposite side; all three were equal in size) were recorded.

zebrafish (Danio rerio) [4] = assay: Light/dark box test in zebrafish; settings: ip; fluvoxamine 5 and 10 mg/kg; DKTE 1 mg/kg
Method: as §1
(§3) A base, back, and side walls of the aquarium were made of matte black plastic; the front panel (shorter wall) was made of transparent Plexiglas. The setup for the Light/Dark preference test consisted of three main parts: a launch compartment, a light compartment made of white plastic, and a dark compartment made of black plastic. The bright lighting in these tests was provided by a lamp on a stand (LED lamp PL, 11 W, light flux≈600 Lm, about 500 Lx directly above the water surface), which was attached to the upper part of the aquarium.
(§4) The light/dark box (LDB) test was performed as described in Maximino et al., 2011. The zebrafish was placed in a light compartment of an LDB using a net, the camera was switched on simultaneously, and the behavior of the zebrafish was recorded for 5 minutes. The video was processed using RealTimer (OpenScience). During the processing of records, the residence time and the number of visits to the light and dark compartments of the test setup were recorded, as well as the latent period of visiting both compartments.

zebrafish (Danio rerio) [5] = assay: Open Field test in zebrafish; settings: ip
Method: as §1, §3
(§5) The open field test was performed as described in Maximino et al., 2013. A video recording (background shooting) was started 20-30 seconds before the zebrafish were placed in the test aquarium. The experimental zebrafish was placed in an open field (“OF”) aquarium using a net. The recording was being conducted for five minutes. The test was carried out using EthoVision XT software package (Noldus). The software registered the distance covered by the animal, its speed, the number of visits to the three conventional zones of the aquarium: “bottom,” “center,” and […] (lower, middle, and upper thirds of the aquarium, respectively), the time spent in these zones, and the latency of a visit to the middle and to the surface of the aquarium.

zebrafish (Danio rerio) [6] = assay: Zebrafish behavioral tests taken together (open field, light/dark box, shoaling); settings: ip; FLPY 1 and 10 mg/kg; DKTE 10 mg/kg; WDQV 1 mg/kg
Method: as §1, §5, §2, §4

COc1cc2nc(N3CCN(C(=O)C4COc5ccccc5O4)CC3)nc(N)c2cc1OC (centres unmarked) [Doxazosin]
behavior of groups not exposed to predator odor (time in randomly paired chambers) (Sprague Dawley rats [1]; FQSE 0.05 and 0.5 mg/kg i.n.): normal behavior | predator odor-induced place aversion (Sprague Dawley rats [1]; FQSE 0.5 mg/kg intra-nasally, vs VEH): there was not a significant difference from VEH

CNC1(c2ccccc2Cl)CCCCC1=O (centres unmarked) [Ketamine]
immobility (Sprague Dawley rats [2]): 196.4 ± 8.9 s | mobility (Sprague Dawley rats [2]): 103.6 ± 8.9 s

DKTE: tetrapeptide D, K, T, E
latent period of visiting the shoal (zebrafish (Danio rerio) [3]): statistically significant increase | time spent in the compartment near the shoal (zebrafish (Danio rerio) [3]; diazepam 1.25 mg/kg, ACZ-10 0.6 mg/kg, BCM-7 5 mg/kg, vs control): at the level of tendency | time spent outside the shoaling compartment (near the wall opposite to the shoal) (zebrafish (Danio rerio) [3]; diazepam 5 mg/kg, FQSE 10 mg/kg, vs control): statistically significant increase | change in behavior / efficacy in the light/dark box test (zebrafish (Danio rerio) [4]): no observed efficacy | latent period of visiting the bottom of the aquarium (zebrafish (Danio rerio) [5]; DKTE 1 mg/kg): increase | average distance covered / track length (locomotor activity) (zebrafish (Danio rerio) [5]; diazepam 1.25, 5, 10, fluvoxamine 5, 10, ACZ-10 0.6, BCM-7 5, FQSE 1 and 10, DKTE 1, WDQV 10 mg/kg): did not affect | basic behavioral parameters in open field, light/dark box and shoaling tests (zebrafish (Danio rerio) [6]): did not cause any statistically significant changes

— US12178838B2, “Synthetic neuromodulatory peptides” (Lactocore, Inc., priority 2019, dated 2024)
